Reference: patent publication US8688416B2, “Methods and systems for improved pharmaceutical intervention in coagulation control” (priority 2008, dated 2014)
Where “and” joins values, the source holds several entries; their conditions need not be identical. Identical values can stand only once.

Experiments:
INR [1] = test: Fit of dose-response equation (4)/(5) for Vitamin K intake to INR of anti-coagulated patients (published data); format: in vivo
Source text: More specifically, the reciprocal of INR will be dose-responsive to Vitamin K in the normal manner, as discussed above, so that Logit (1/INR) will be linear in log (K), where K is the effective total intake of Vitamin K in μg/day. Data on the total intake of Vitamin K are very rarely available in the clinic, but it is practicable to investigate departures from the usual amount when occasion arises, such as when a supplement of Vitamin K is prescribed. Therefore log (K) is expressed as the sum of two terms: log (K)=log (K0)+log (K/K0), where K0 is the average daily intake of Vitamin K.
The dose-response curve described here includes the effect of exogenous Vitamin K by considering the parameter a in equation (1) to be the sum of two terms, a=a′+c log (K0), where a′ is another constant and c is a patient-specific parameter, and by adding a term for the effect of departures from K0. Thus, it follows that Log (INR−1)=bw−a−c log (K/K0) (4) […]
The parameters of this dose-response curve for Vitamin K are derived primarily from published data based on use of synthetic Vitamin K tablets. In such published studies, the average daily intake of Vitamin K was measured in the diet of the subjects at 55 μg. […] The dose was increased each Monday before INR was measured; thus, the INR for Tuesday was one day after increase, etc.

INR [2] = test system: INR
Source text: To simplify, a=y log (PCAo)−x, which expresses the fixed contribution of the patient's own clotting factor system; this will result in equation (1) Log (INR−1)=bw−a (1)
Consequently, the patient-specific parameters are now a and b. […] In the absence of further information, a is assumed to be a constant characteristic of the patient, but as will be shown below, also includes the effects of the intake of Vitamin K on the patient's INR, whose effects can be represented by adding another term (see below). It should be pointed out that Equation (1) is a proposition, not a definition, because it specifies what value of the INR will be observed, given values for a, b and w. Furthermore, it should be appreciated that the value predicted for a particular patient thus depends only on w regardless of when in the treatment sequence it occurred. […] These two parameters relating INR to effective dose w can be seen as the scale factor for the dose a and the steepness of the dose response b.
In the present invention, an empirical approximation is used to predict the time course of the patient's response to a change in a dose. […] In the case of a patient taking the same dose for an extended time, the “effective dose” equals that regular dose after the stabilization time. The “effective dose” only needs to be calculated when there is a change in dosage and during the stabilization period.
The “effective dose” is calculated by convolving the actual dose with a function of time since the dose was taken. This function represents the effect of a single dose on the INR through time. […] It is assumed that the weighting for a dose taken just once is a triangular function with a slope of k from the time the dose is taken to the time of its maximum effect on INR, followed by a tailing off with a slope of −k. The resulting function for a maintained daily dose is an S-shaped growth function, consisting of two quarter-parabolae, depicted in FIG. 5. […] Here, the half-maximal delay is one unit of time at which the dose has half its maximum effect. When the patient stops taking the drug, the decay is reversed.
The “optimum” dose is the dose expected to yield an INR at the mid-point of the therapeutic range. The effective doses were calculated using a half-maximal delay of 6.4, 6.4 and 9.0 days respectively.
The parameter tmax½ used for this convolution is the time to attain the half-maximal effect for a maintained dose, which is also the time to attain the maximum effect of a single dose.

[3] = patients studied, all taking warfarin, w = daily dosage in milligrams, natural log

`CC1=C(C/C=C(\C)CCC[C@H](C)CCC[C@H](C)CCCC(C)C)C(=O)c2ccccc2C1=O` [Vitamin K1] was tested, and the half-time to stabilization (INR [1]; effect on INR of effective total daily intake) was “about 1.6 days”.

For `CC(=O)CC(c1ccccc1)c1c(O)c2ccccc2oc1=O` (centres unmarked) [warfarin], the “time until the INR has stabilized on a constant dose” value (INR [2]; constant dose) was 13 days and 14 days, the “mean value of a in equation (1), Log (INR-1)=bw-a” value (INR [2]; [3]) was “about 2.8” and the “mean value of b in equation (1) (sensitivity, slope of the dose-response curve)” value (INR [2]; [3]) was “about 0.54”.

Vitamin K was tested, and the “average value of patient-specific parameter c in equation (5)” value (INR [1]; derived from the literature data, K in μg/day, natural log) was 0.43.
